# Experimental data: patent US6258845A (priority 1999, dated 2001)
# “Also recorded” adds a separate entry of the source. Read-outs that look alike come from different tables or passages of the source.
# What was measured:
# Caco-2 parental cells = experiment: Induction of apoptosis (light microscopy) in Caco-2 parental cells; type: cell-based, human; settings: Caco-2 parental
# Protocol: (§1) FIG. 3. […] Apoptosis was determined by light microscopy.
# (§2) FIG. 8. […] Cells were grown over a period of 6 days. Cells were harvested at various days (0, 2, 4 and 6 days), spun onto slides and stained. Apoptosis was determined by light microscopy. Percentage of apoptotic cells was calculated as the number of apoptotic cells out of the total cells counted times 100. At least 500 cells were counted for each sample.
# (§3) Cells were grown over a period of 6 days. Cells were harvested at various days (0, 2, 4 and 6 days), spun onto slides and stained. Apoptosis was determined by light microscopy. Percentage of apoptotic cells was calculated as the number of apoptotic cells out of the total cells counted times 100.
# [1] = tested on: carcinogenesis in rodent/animal models; settings: in vivo; cited from earlier work
# [2] = tested on: Caco-2 parental cells, Ki-ras clone #60 and Ki-ras clone #66; experiment: Viable cell number (trypan blue dye exclusion), growth of Caco-2 parental and Ki-ras transfected cells; type: cell-based, human
# Protocol: Effect of sulindac sulfide and sulfone on the growth of Ki-ras transfected cells. […] Viable cell number was determined by trypan blue dye exclusion.
# Caco-2 cells were maintained in Modified Eagle Media (GIBCO, Grand Island, N.Y.) supplemented with 10% fetal bovine serum and a 1% penicillin (10,000 units/ml)-streptomycin (10,000 mg/ml) solution (GIBCO, Grand Island, N.Y.). Transfected Caco-2 cells resistant to neomycin were maintained in 400 μg/ml G418. Cells were maintained at 37° in the presence of 5% CO2 in air.
# All cells were passed into new medium every two to three days, just prior to confluence. Drug additions were performed at the time of cell seeding and in MEM for each cell line unless otherwise noted. […] The two metabolites of sulindac, sulindac sulfone and sulfide, were obtained from Cell Pathways, Inc. (Horsham Pa.).
# Caco-2 cells were removed from the monolayer by treatment with trypsin (1500 units/ml, Calbiochem, San Diego, Calif.)-EDTA (.7mM) and counted using a hemocytometer. A sample of the cell suspension was combined in a 1:1 volume ratio with trypan blue dye (GIBCO, Grand Island, N.Y.), and at least two independently prepared suspensions were counted on a hemocytometer, two counts each. For all cell types, viability was determined by the percentage of cells able to exclude the trypan blue dye.
# tumor cells = settings: cited from earlier work
# COX (cyclooxygenase) = settings: cited from earlier work
# [3] = tested on: Ki-ras codon 12 mutations in the AOM-treated rat; experiment: Ki-ras codon 12 mutations in colon tumors of AOM-treated rats (PCR-RFLP); type: in vivo; settings: 0-1000 ppm in the food
# Description: A PCR™-RFLP assay is used to screen for codon 12 mutations in Ki-ras in colon adenocarcinomas from AOM-treated rats, because more than 60% of Ki-ras mutations in these tumors occur at this site (Jiang et al., 1989). PCR™ will be performed using primers designed to create a BstN1 restriction endonuclease site at codon 12 of the Ki-ras gene as described (Searle et al., 1982) a G→C change made at codon 11.3 bp from the 3' end of the wildtype upstream primer: 5'[…]-3') Ki-ras mutations are determined by whether a change had occurred in the BsN1 site. If a mutation had occurred, no change in base pair length from uncut PCR™ fragments would occur. Restriction enzyme digested PCR™ products were electrophoresed on a 3.5% agarose gel, stained with ethidium bromide, and visualized under […] UV trans-illumination for the presence of mutations.
# Putative Ki-ras mutations detected by this assay method in colon adenocarcinomas obtained from AOM-treated rats will be confirmed by DNA sequencing methods.
# Ki-ras clone #60 cells = experiment: Clonogenic assay (colony-forming efficiency), Ki-ras clone 60; type: cell-based, human; settings: with or without DFMO; normalized survival
# [4] = tested on: Ki-ras transfected Caco-2 cells; experiment: Induction of apoptosis in Ki-ras transfected versus parental Caco-2 cells; type: cell-based, human; settings: 120 μM sulfide, 600 μM sulfone
# Protocol: as §1
# [5] = tested on: AOM-treated rat model of colon carcinogenesis; experiment: Colon carcinogenesis in the AOM-treated rat / rodent model; settings: sulfoxide and sulfone forms
# [6] = tested on: Caco-2 and clone 60 cells; experiment: Clonogenic assay (colony-forming efficiency), Caco-2 and clone 60 cells; type: cell-based, human
# Ki-ras clone #60 = experiment: Induction of apoptosis (light microscopy) in Ki-ras clone 60; type: cell-based, human
# Protocol: as §1, §2, §3
# [7] = 600 μM sulfone vs 120 μM sulfide
smiles,measurement,setting,value
CC1=C(CC(=O)O)c2cc(F)ccc2/C1=C\c1ccc(S(C)(=O)=O)cc1 [sulindac sulfone],"induction of apoptosis, sulfone compared with sulfide",Caco-2 parental cells; [7],more pronounced than with the sulfide
same,time of peak apoptosis,Caco-2 parental cells; 600 μM sulindac sulfone,8 days
same,chemoprevention / inhibition of tumor development in animal models,[1],inhibits tumor development in several rodent models of carcinogenesis
same,Ki-ras selective toxicity / Ki-ras-specific effect on growth,[2]; 120 μM sulindac sulfide or 600 μM sulindac sulfone,nor did sulindac sulfide or sulfone exert a Ki-ras-specific effect on growth
same,number of viable cells,[2]; 600 μM sulindac sulfone,pronounced cell loss beginning 6 days after treatment
same,induction of apoptosis in tumor cells,tumor cells,induces apoptosis in tumor cells
same,COX / prostaglandin synthesis inhibition,COX (cyclooxygenase),does not
same,COX / prostaglandin synthesis inhibition,COX (cyclooxygenase); listed as Sulindac sulfone,lacks COX-inhibitory activity
same,dose-dependency of Ki-ras mutation reduction,[3],some indication of dose-dependency
same,frequency of AOM-induced codon 12 mutations in Ki-ras,[3]; from 19/31 (61%),14%
same,incidence of AOM-induced codon 12 mutations in Ki-ras,[3]; from 19/31 (61%),5/35
same,resistance of clone 60 to sulindac sulfone,Ki-ras clone #60 cells,slightly more resistant to the effects of sulindac sulfone than the parental cells
same,onset of apoptosis in Ki-ras transfected cells compared with parental cells,[4],accelerate the onset of apoptosis; also recorded: occurred several days earlier in Ki-ras transfected cells than in parental cells
same,inhibition of carcinogenesis in the AOM-treated rat,[5],"inhibit carcinogenesis in the AOM-treated rat, with similar potencies"
same,IC50,"[6]; Homo sapiens, Caco-2, 24 h treatment, replated, colony formation, read-out: 50% decrease in cell number",~800 µM
same,effect of Ki-ras activation on viability / colony-forming efficiency after sulindac metabolite,"[6]; increasing concentrations, 24 h",did not reveal any differences in colony-forming efficiency between Ki-ras transfectants and parental Caco-2 cells
same,"induction of apoptosis, sulfone compared with sulfide",Ki-ras clone #60; [7],more pronounced than with the sulfide
same,time of peak apoptosis,Ki-ras clone #60; 600 μM sulindac sulfone,6 days
